Where only a bound is given, the exact number is not on record here.

In the data set the target is T1, MDR1 (Homo sapiens, UniProt P08183).
T1 construct: expressed in transfected cells
T1 sequence (P08183 whole entry): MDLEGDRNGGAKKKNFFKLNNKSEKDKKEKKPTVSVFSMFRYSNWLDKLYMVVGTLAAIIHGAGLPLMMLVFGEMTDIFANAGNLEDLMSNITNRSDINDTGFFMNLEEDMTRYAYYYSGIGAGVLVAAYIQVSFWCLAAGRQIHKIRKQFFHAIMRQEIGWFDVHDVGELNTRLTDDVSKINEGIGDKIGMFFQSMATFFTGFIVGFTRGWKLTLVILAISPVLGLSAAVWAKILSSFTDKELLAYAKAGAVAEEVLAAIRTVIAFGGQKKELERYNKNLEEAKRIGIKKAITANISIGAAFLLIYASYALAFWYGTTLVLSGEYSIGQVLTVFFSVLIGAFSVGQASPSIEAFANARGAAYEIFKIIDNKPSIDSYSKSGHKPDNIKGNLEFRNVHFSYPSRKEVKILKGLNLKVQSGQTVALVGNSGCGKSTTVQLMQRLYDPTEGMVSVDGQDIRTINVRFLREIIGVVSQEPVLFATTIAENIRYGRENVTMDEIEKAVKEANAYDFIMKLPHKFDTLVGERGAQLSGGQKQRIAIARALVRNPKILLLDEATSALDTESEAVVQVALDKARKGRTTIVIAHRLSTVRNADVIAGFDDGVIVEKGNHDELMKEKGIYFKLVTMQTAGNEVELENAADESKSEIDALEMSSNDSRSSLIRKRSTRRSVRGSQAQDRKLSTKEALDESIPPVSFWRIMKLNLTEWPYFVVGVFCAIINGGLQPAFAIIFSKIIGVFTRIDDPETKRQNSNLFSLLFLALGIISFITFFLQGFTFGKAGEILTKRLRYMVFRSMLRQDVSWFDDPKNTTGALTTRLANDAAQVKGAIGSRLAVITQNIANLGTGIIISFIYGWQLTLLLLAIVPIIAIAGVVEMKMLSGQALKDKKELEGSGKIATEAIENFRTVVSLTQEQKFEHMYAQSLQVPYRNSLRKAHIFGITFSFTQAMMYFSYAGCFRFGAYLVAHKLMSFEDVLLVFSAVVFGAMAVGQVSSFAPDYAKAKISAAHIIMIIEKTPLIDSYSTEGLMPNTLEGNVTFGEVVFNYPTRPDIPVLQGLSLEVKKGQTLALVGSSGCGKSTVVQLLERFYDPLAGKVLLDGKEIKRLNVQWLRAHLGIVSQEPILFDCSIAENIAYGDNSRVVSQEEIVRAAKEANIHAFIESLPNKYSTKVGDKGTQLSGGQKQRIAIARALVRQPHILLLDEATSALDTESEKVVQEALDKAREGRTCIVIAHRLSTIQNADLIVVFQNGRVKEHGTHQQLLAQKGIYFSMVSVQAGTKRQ
Put plainly: MDR1 membrane permeability test. The conditions noted are these: pH 7.4, efflux ratio (ER), Papp B to A / A to B, human MDR1-expressing LLC-PK1 cells, read-out: MDR1 substrate screening 1 μM (MDRSUB1)/Ratio (NUMBER). Format: in vitro ADME. How it is done: MDR1 Membrane Permeability Test
When MDR1 is expressed in excess in LLC-PK1 cell, which is a polar cell, MDR1 is localized in apical membrane (A), thus promoting transcellular transport from the basement membrane side (B) toward direction A. When a ratio to the transcellular transport in the opposite direction is taken and a ratio to a control cell in which a mock vector has been introduced is further taken, an efflux ratio of MDR1 to simple diffusion (corrected efflux ratio) is calculated. Similarly, when a brain/plasma concentration ratio in Mdr1(−/−) mouse is divided by a brain/plasma concentration ratio in wild-type mouse, an efflux ratio of Mdr1 to simple diffusion in BBB (Kp, brain ratio, higher value means lower central nervous system permeability) is calculated. Adachi Y. et al. (Reference 1) has reported a positive correlation between corrected efflux ratio and Kp, brain ratio (FIG. 5(C)), and efflux ratio in MDR1 expressing cell and Kp, brain ratio (FIG. 5(B)).
To confirm the central nervous system permeability of the compounds of the present invention, a MDR1 membrane permeability test was performed by the following method.
Human MDR1-expressing LLC-PK1 cells were cultured according to the report of Takeuchi et al. (Reference 2). Human MDR1-expressing LLC-PK1 cells were cultured in 10% fetal bovine serum (Invitrogen), 500 μg/ml G418 (Invitrogen), 150 ng/ml colchicine-containing M199 medium (Invitrogen) under 5% CO2 conditions at 37° C.
Transcellular transport was performed according to the report of Sugimoto et al. (Reference 3). The cells were cultured for 3 days on HTS Transwell (registered trademark) 96 well permeable support (pore size 0.4 μm, 0.143 cm^2 surface area, Corning Life Sciences) having polyethylene terephthalate membrane on which the cells had been seeded at 3.45×10^4 cells/well. After preincubation in M199 medium (containing 10 mmol/L HEPES, 1% BSA, pH 7.4) for 30 min, a drug solution (10 μmol/L digoxin, 200 μmol/L LY, […]) dissolved in M199 medium was added to the apical side or basolateral side of the Transwell by 75 or 250 μL each and the cells were cultured under 5% CO2 conditions at 37° C. After 1 hr, the sample was collected from the side opposite to the side where the drug solution was added, and the concentration of the test compound was measured by LC-MS/MS. As an internal standard substance, 100 ng/mL alprenolol and diclofenac were used. The analysis conditions were as follows.
Papp, A to B and Papp, B to A (apparent permeability) were calculated from the formula (1), and the efflux ratio (ER) was calculated from the formula (2).
Turning to `Cc1c(Cc2ccc(-n3cccn3)cc2)cc2c(=O)n([C@H]3CCOC[C@@H]3O)cnc2c1C` [Comparative Example 1, 3-((3R,4S)-3-hydroxytetrahydro-2H-pyran-4-yl)-7,8-dimethyl-6-(4-(1H-pyrazol-1-yl)benzyl)quinazolin-4(3H)-one, reference compound], the efflux ratio at 1 hr, 1 μM was 0.83. The value for `Cc1c(Cc2ccc(-c3cnn(CC(=O)N(C)C)c3)nc2)cc2c(=O)n([C@H]3CCOC[C@@H]3O)cnc2c1C` [Example 82, 1,5-anhydro-2,3-dideoxy-3-(6-((6-(1-(2-(dimethylamino)-2-oxoethyl)-1H-pyrazol-4-yl)pyridin-3-yl)methyl)-7,8-dimethyl-4-oxoquinazolin-3(4H)-yl)-L-threo-pentitol] was greater than 18. Take `Cc1c(Cc2ccc(C(=O)NC3CCOCC3)cc2)cc2c(=O)n([C@H]3CCOC[C@@H]3O)cnc2c1C` [Example 32, 1,5-anhydro-2,3-dideoxy-3-(7,8-dimethyl-4-oxo-6-(4-(tetrahydro-2H-pyran-4-ylcarbamoyl)benzyl)quinazolin-3 (4H)-yl)-L-threo-pentitol]: the efflux ratio at 1 hr, 1 μM worked out at 26.

Take `Cc1c(Cc2ccc(C(=O)NCCC(F)(F)F)cc2)cc2c(=O)n([C@H]3CCOC[C@@H]3O)cnc2c1C` [Example 53, 1,5-anhydro-2,3-dideoxy-3-(7,8-dimethyl-4-oxo-6-(4-((3,3,3-trifluoropropyl)carbamoyl)-benzyl)quinazolin-3 (4H)-yl)-L-threo-pentitol]: the efflux ratio at 1 hr, 1 μM turned out to be 8.3. As to `Cc1c(Cc2ccc(C(=O)NC3(C(F)F)CC3)cc2)cc2c(=O)n([C@H]3CCOC[C@@H]3O)cnc2c1C` [Example 35, 1,5-anhydro-2,3-dideoxy-3-(6-(4-((1-(difluoromethyl)-cyclopropyl)carbamoyl)benzyl)-7,8-dimethyl-4-oxoquinazolin-3 (4H)-yl)-L-threo-pentitol], the efflux ratio at 1 hr, 1 μM worked out at 9.

Consider `Cc1c(Cc2ccc(-c3cnn(CC(F)(F)F)c3)nc2)cc2c(=O)n([C@H]3CCOC[C@@H]3O)cnc2c1C` [Example 74, 1,5-anhydro-2,3-dideoxy-3-(7,8-dimethyl-4-oxo-6-((6-(1-(2,2,2-trifluoroethyl)-1H-pyrazol-4-yl)pyridin-3-yl)methyl)quinazolin-3(4H)-yl)-L-threo-pentitol], for which the efflux ratio at 1 hr, 1 μM was 7.1. Consider `CNC(=O)c1ccc(Cc2cc3c(=O)n([C@H]4CCOC[C@@H]4O)cnc3c(Cl)c2C)cc1F` [Example 10, 1,5-anhydro-3-(8-chloro-6-(3-fluoro-4-(methylcarbamoyl)benzyl)-7-methyl-4-oxoquinazolin-3(4H)-yl)-2,3-dideoxy-L-threo-pentitol], for which the efflux ratio at 1 hr, 1 μM was 15. Consider `Cc1c(Cc2ccc(C(=O)NC3(C#N)CC3)c(F)c2)cc2c(=O)n([C@H]3CCOC[C@@H]3O)cnc2c1C` [Example 89, 1,5-anhydro-3-(6-(4-((1-cyanocyclopropyl)carbamoyl)-3-fluorobenzyl)-7,8-dimethyl-4-oxoquinazolin-3 (4H)-yl)-2,3-dideoxy-L-threo-pentitol], for which the efflux ratio at 1 hr, 1 μM stood at 16.

For the compound `COc1cc2ncn([C@H]3CCOC[C@@H]3O)c(=O)c2cc1Cc1ccc(-c2cn(C)nn2)nc1` [Example 64, 1,5-anhydro-2,3-dideoxy-3-(7-methoxy-6-((6-(1-methyl-1H-1,2,3-triazol-4-yl)pyridin-3-yl)methyl)-4-oxoquinazolin-3 (4H)-yl)-L-threo-pentitol], the efflux ratio at 1 hr, 1 μM stood at 36.

Take `Cc1c(Cc2ccc(C(=O)NCC3CCOCC3)cc2)cc2c(=O)n([C@H]3CCOC[C@@H]3O)cnc2c1C` [Example 51, 1,5-anhydro-2,3-dideoxy-3-(7,8-dimethyl-4-oxo-6-(4-((tetrahydro-2H-pyran-4-ylmethyl)carbamoyl)-benzyl)quinazolin-3 (4H)-yl)-L-threo-pentitol]: the efflux ratio at 1 hr, 1 μM amounted to 27. Consider `Cc1c(Cc2ccc(C(=O)NC3(C)CC3)cc2)cc2c(=O)n([C@H]3CCOC[C@@H]3O)cnc2c1C` [Example 43, 1,5-anhydro-2,3-dideoxy-3-(7,8-dimethyl-6-(4-((1-methylcyclopropyl)carbamoyl)-benzyl)-4-oxoquinazolin-3 (4H)-yl)-L-threo-pentitol], for which the efflux ratio at 1 hr, 1 μM is 12. For the compound `Cc1c(Cc2ccc(C(=O)NC(C)C)cc2)cc2c(=O)n([C@H]3CCOC[C@@H]3O)cnc2c1C` [Example 36, 1,5-anhydro-2,3-dideoxy-3-(6-(4-(isopropylcarbamoyl)benzyl)-7,8-dimethyl-4-oxoquinazolin-3 (4H)-yl)-L-threo-pentitol], the efflux ratio at 1 hr, 1 μM was 11.

For `Cc1c(Cc2ccc(C(=O)NCC3CCCO3)cc2)cc2c(=O)n([C@H]3CCOC[C@@H]3O)cnc2c1C` (stereo partly drawn) [Example 45, 1,5-anhydro-2,3-dideoxy-3-(7,8-dimethyl-4-oxo-6-(4-((tetrahydrofuran-2-ylmethyl)carbamoyl)benzyl)quinazolin-3 (4H)-yl)-L-threo-pentitol], the efflux ratio at 1 hr, 1 μM stood at 23.

Turning to `Cc1nn(C)cc1-c1ccc(Cc2cc3c(=O)n([C@H]4CCOC[C@@H]4O)cnc3c(Cl)c2C)cn1` [Example 12, 1,5-anhydro-3-(8-chloro-6-((6-(1,3-dimethyl-1H-pyrazol-4-yl)pyridin-3-yl)methyl)-7-methyl-4-oxoquinazolin-3(4H)-yl)-2,3-dideoxy-L-threo-pentitol], the efflux ratio at 1 hr, 1 μM turned out to be 17.

`Cc1c(Cc2ccc(C(=O)NCCF)c(F)c2)cc2c(=O)n([C@H]3CCOC[C@@H]3O)cnc2c1C` [Example 67, 1,5-anhydro-2,3-dideoxy-3-(6-(3-fluoro-4-((2-fluoroethyl)carbamoyl)benzyl)-7,8-dimethyl-4-oxoquinazolin-3 (4H)-yl)-L-threo-pentitol]: the efflux ratio at 1 hr, 1 μM came out at 5.3. With `CNC(=O)c1ccc(Cc2cc3c(=O)n([C@H]4CCOC[C@@H]4O)nnc3c(C)c2C)cn1` [Example 91, 1,5-anhydro-2,3-dideoxy-3-(7,8-dimethyl-6-((6-(methylcarbamoyl)pyridin-3-yl)methyl)-4-oxo-1,2,3-benzotriazin-3 (4H)-yl)-L-threo-pentitol], the efflux ratio at 1 hr, 1 μM is 5.9. As for `Cc1c(Cc2ccc(C(=O)NCCN3CCOCC3)cc2)cc2c(=O)n([C@H]3CCOC[C@@H]3O)cnc2c1C` [Example 47, 1,5-anhydro-2,3-dideoxy-3-(7,8-dimethyl-6-(4-((2-(morpholin-4-yl)ethyl)carbamoyl)benzyl)-4-oxoquinazolin-3 (4H)-yl)-L-threo-pentitol], the efflux ratio at 1 hr, 1 μM stood at 24. Take `Cc1c(Cc2ccc(-c3cn(C)nn3)cc2)cc2c(=O)n([C@H]3CCOC[C@@H]3O)cnc2c1F` [Example 22, 1,5-anhydro-2,3-dideoxy-3-(8-fluoro-7-methyl-6-(4-(1-methyl-1H-1,2,3-triazol-4-yl)benzyl)-4-oxoquinazolin-3(4H)-yl)-L-threo-pentitol]: the efflux ratio at 1 hr, 1 μM was 12.

For `COCCCNC(=O)c1ccc(Cc2cc3c(=O)n([C@H]4CCOC[C@@H]4O)cnc3c(C)c2C)cc1` [Example 38, 1,5-anhydro-2,3-dideoxy-3-(6-(4-((3-methoxypropyl)carbamoyl)benzyl)-7,8-dimethyl-4-oxoquinazolin-3 (4H)-yl)-L-threo-pentitol], the efflux ratio at 1 hr, 1 μM was found to be 15. Consider `Cc1c(Cc2ccc(C(=O)NC34CC(C3)C4)cc2)cc2c(=O)n([C@H]3CCOC[C@@H]3O)cnc2c1C` [Example 42, 1,5-anhydro-3-(6-(4-(bicyclo[1.1.1]penta-1-ylcarbamoyl)benzyl)-7,8-dimethyl-4-oxoquinazolin-3 (4H)-yl)-2,3-dideoxy-L-threo-pentitol], for which the efflux ratio at 1 hr, 1 μM came to 5.9. For `Cc1nn(C)cc1-c1ccc(Cc2cc3c(=O)n([C@H]4CCOC[C@@H]4O)cnc3c(F)c2C)cn1` [Example 23, 1,5-anhydro-2,3-dideoxy-3-(6-((6-(1,3-dimethyl-1H-pyrazol-4-yl)pyridin-3-yl)methyl)-8-fluoro-7-methyl-4-oxoquinazolin-3(4H)-yl)-L-threo-pentitol], the efflux ratio at 1 hr, 1 μM is 19. In the case of `Cc1c(Cc2ccc(-c3cnn(C(C)(C)C)c3)nc2)cc2c(=O)n([C@H]3CCOC[C@@H]3O)cnc2c1C` [Example 72, 1,5-anhydro-3-(6-((6-(1-tert-butyl-1H-pyrazol-4-yl)pyridin-3-yl)methyl)-7,8-dimethyl-4-oxoquinazolin-3(4H)-yl)-2,3-dideoxy-L-threo-pentitol], the efflux ratio at 1 hr, 1 μM was 2.9.
